The record followed here is ChEMBL document CHEMBL2331167, “Inhibitory effect of novel somatostatin peptide analogues on human cancer cell growth based on the selective inhibition of DNA polymerase β” (Bioorg Med Chem, 2013).

Assay [1] is described as follows: Inhibition of human DNA polymerase epsilon using poly(dA)/oligo(dT)18 (A/T, 2/1)/dTTP DNA template-primer substrate measured at 37 degC for 60 mins.
Assay [2] can be described thus: Inhibition of calf DNA polymerase alpha using poly(dA)/oligo(dT)18 (A/T, 2/1)/dTTP DNA template-primer substrate measured at 37 degC for 60 mins. Also noted: species or system Bos taurus.
In assay [3] the target is T1, DNA polymerase kappa (Homo sapiens, UniProt Q9UBT6).
T1 sequence (Q9UBT6 whole entry): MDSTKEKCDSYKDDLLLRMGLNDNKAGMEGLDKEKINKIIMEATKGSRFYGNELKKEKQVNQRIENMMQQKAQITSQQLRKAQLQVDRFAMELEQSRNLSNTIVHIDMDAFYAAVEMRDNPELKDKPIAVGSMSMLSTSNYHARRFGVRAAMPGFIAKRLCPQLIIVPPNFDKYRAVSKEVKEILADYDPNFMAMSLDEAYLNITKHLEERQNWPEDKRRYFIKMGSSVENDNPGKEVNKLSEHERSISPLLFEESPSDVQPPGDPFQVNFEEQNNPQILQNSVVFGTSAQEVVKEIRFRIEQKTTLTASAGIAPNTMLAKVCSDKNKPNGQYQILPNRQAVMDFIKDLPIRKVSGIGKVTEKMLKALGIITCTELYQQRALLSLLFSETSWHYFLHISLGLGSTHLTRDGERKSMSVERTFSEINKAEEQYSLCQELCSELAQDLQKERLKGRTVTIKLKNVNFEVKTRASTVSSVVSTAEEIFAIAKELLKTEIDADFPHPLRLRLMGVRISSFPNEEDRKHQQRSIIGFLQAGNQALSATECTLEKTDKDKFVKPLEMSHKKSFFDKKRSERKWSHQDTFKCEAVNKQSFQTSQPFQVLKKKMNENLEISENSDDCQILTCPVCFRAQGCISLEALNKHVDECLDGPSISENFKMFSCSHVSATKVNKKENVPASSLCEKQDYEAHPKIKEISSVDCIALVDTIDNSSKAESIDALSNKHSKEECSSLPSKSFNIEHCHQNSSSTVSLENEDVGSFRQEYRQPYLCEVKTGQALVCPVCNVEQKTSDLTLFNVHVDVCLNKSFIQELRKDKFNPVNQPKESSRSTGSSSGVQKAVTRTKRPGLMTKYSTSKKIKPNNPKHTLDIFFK
Briefly: Inhibition of human DNA polymerase kappa using poly(dA)/oligo(dT)18 (A/T, 2/1)/dTTP DNA template-primer substrate measured at 37 degC for 60 mins.

For assay [4], the target named is T2, DNA polymerase iota (Homo sapiens, UniProt Q9UNA4).
T2 sequence (Q9UNA4 whole entry): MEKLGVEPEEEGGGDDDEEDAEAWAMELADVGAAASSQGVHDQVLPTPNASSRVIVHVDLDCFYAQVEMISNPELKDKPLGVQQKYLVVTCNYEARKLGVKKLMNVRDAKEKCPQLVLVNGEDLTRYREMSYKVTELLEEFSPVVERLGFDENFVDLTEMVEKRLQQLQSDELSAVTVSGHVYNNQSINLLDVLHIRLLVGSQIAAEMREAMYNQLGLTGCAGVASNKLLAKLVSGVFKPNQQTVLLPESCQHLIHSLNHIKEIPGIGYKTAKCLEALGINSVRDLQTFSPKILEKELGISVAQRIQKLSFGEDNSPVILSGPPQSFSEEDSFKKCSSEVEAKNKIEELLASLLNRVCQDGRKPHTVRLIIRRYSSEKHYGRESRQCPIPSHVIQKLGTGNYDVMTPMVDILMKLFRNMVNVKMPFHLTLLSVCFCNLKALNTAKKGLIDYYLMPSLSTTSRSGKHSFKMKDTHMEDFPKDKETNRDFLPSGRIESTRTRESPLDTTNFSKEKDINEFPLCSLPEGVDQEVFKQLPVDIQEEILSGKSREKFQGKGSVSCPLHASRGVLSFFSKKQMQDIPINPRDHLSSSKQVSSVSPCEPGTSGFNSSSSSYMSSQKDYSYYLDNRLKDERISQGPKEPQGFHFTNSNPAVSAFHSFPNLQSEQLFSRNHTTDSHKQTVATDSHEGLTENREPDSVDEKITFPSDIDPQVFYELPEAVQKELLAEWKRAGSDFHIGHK
Briefly: Inhibition of human DNA polymerase iota using poly(dA)/oligo(dT)18 (A/T, 2/1)/dTTP DNA template-primer substrate measured at 37 degC for 60 mins.

In assay [5] the test system is HCT-116. Put plainly: Cytotoxicity against p53 +/+ human HCT116 cells assessed as growth inhibition at 200 uM incubated for 24 hrs by WST-1 assay. Format: functional, cell-based.

Molecules are shown by their SMILES. Activity calls are given as the source filed them. The calls are words filed in the database; no cut-off is given here. Where only a bound is given, the exact number is not on record here.

As for `CC[C@H](C)[C@H](NC(=O)[C@H](Cc1ccc(O)cc1)NC(=O)OC(C)(C)C)C(=O)Nc1cccc2ccccc12`, the IC50 in assay [1], in assay [2], in assay [3] and in assay [4] was more than 200 µM in each case. Also, in assay [5], the “growth inhibition (GI)” value was “Active”.
